Laboratory results reported in the NIST ThermoML archive (doi:10.1016/j.jct.2009.05.006).

Columns and labels:
[1] = xn = mol fraction of the nth substance listed; details: 298.15 K, 101 kPa, Liquid, Vibrating tube method
[2] = excess molar enthalpy (molar enthalpy of mixing); xn = mol fraction of the nth substance listed; details: 298.15 K, 101 kPa, Liquid, Calvet calorimetry

BrCCCCCCBr [1,6-dibromohexane] + CCCCOC=O
Details | excess molar enthalpy [kcal/mol] | mass density [kg/m3]
[1], x2 = 0.0793 | – | 1558.23
[1], x2 = 0.1555 | – | 1514.85
[1], x2 = 0.2238 | – | 1474.51
[1], x2 = 0.2952 | – | 1430.8
[1], x2 = 0.3567 | – | 1391.77
[1], x2 = 0.4201 | – | 1350.14
[1], x2 = 0.4813 | – | 1308.59
[1], x2 = 0.5983 | – | 1224.92
[1], x2 = 0.6603 | – | 1178.22
[1], x2 = 0.7628 | – | 1097.17
[1], x2 = 0.8097 | – | 1058.36
[1], x2 = 0.854 | – | 1020.74
[1], x2 = 0.9078 | – | 973.55
[2], x2 = 0.0858 | 0.0241 | –
[2], x2 = 0.1844 | 0.0413 | –
[2], x2 = 0.2879 | 0.0566 | –
[2], x2 = 0.3755 | 0.0655 | –
[2], x2 = 0.4521 | 0.0686 | –
[2], x2 = 0.5188 | 0.0674 | –
[2], x2 = 0.6009 | 0.0636 | –
[2], x2 = 0.6581 | 0.0583 | –
[2], x2 = 0.7307 | 0.0497 | –
[2], x2 = 0.8078 | 0.0375 | –
[2], x2 = 0.8827 | 0.0246 | –
[2], x2 = 0.9487 | 0.0134 | –

BrCCCCCCBr [1,6-dibromohexane] + CCCCOC(C)=O
Details | excess molar enthalpy [kcal/mol] | mass density [kg/m3]
[1], x2 = 0.1369 | – | 1513.56
[1], x2 = 0.2111 | – | 1464.63
[1], x2 = 0.2634 | – | 1429.52
[1], x2 = 0.3292 | – | 1384.72
[1], x2 = 0.3855 | – | 1345.64
[1], x2 = 0.4456 | – | 1303.3
[1], x2 = 0.5046 | – | 1260.95
[1], x2 = 0.5622 | – | 1219.05
[1], x2 = 0.6175 | – | 1178.12
[1], x2 = 0.7334 | – | 1090.14
[1], x2 = 0.7855 | – | 1049.66
[1], x2 = 0.8433 | – | 1003.91
[1], x2 = 0.8909 | – | 965.75
[1], x2 = 0.9462 | – | 920.67
[2], x2 = 0.0742 | 0.00813 | –
[2], x2 = 0.1664 | 0.0139 | –
[2], x2 = 0.27 | 0.0179 | –
[2], x2 = 0.3625 | 0.0179 | –
[2], x2 = 0.4313 | 0.0151 | –
[2], x2 = 0.4863 | 0.012 | –
[2], x2 = 0.5098 | 0.00956 | –
[2], x2 = 0.5385 | 0.00741 | –
[2], x2 = 0.5631 | 0.00406 | –
[2], x2 = 0.5869 | 0.00167 | –
[2], x2 = 0.6272 | -0.00239 | –
[2], x2 = 0.6989 | -0.00526 | –
[2], x2 = 0.7827 | -0.00621 | –
[2], x2 = 0.8669 | -0.00478 | –
[2], x2 = 0.9422 | -0.00239 | –

BrCCCCBr [1,4-dibromobutane] + CCCCOC(C)=O
Details | excess molar enthalpy [kcal/mol] | mass density [kg/m3]
[1], x1 = 0.06 | – | 1754.15
[1], x1 = 0.1131 | – | 1699.34
[1], x1 = 0.1633 | – | 1648.18
[1], x1 = 0.2229 | – | 1588.24
[1], x1 = 0.2748 | – | 1536.73
[1], x1 = 0.3886 | – | 1426
[1], x1 = 0.4426 | – | 1374.38
[1], x1 = 0.5 | – | 1320.28
[1], x1 = 0.6216 | – | 1207.87
[1], x1 = 0.6806 | – | 1154.38
[1], x1 = 0.8076 | – | 1041.44
[1], x1 = 0.8633 | – | 992.97
[1], x1 = 0.9298 | – | 935.67
[2], x2 = 0.0576 | 0.00335 | –
[2], x2 = 0.135 | 0.00574 | –
[2], x2 = 0.2211 | 0.00621 | –
[2], x2 = 0.3056 | 0.00359 | –
[2], x2 = 0.3729 | -0.000956 | –
[2], x2 = 0.4291 | -0.00621 | –
[2], x2 = 0.4798 | -0.0124 | –
[2], x2 = 0.4866 | -0.0158 | –
[2], x2 = 0.5277 | -0.0186 | –
[2], x2 = 0.5406 | -0.021 | –
[2], x2 = 0.603 | -0.0234 | –
[2], x2 = 0.6715 | -0.0237 | –
[2], x2 = 0.7464 | -0.0222 | –
[2], x2 = 0.8416 | -0.0155 | –
[2], x2 = 0.9307 | -0.00717 | –

CCCCOC(=O)CCC [butyl butanoate] + BrCCCCCBr
Details | excess molar enthalpy [kcal/mol] | mass density [kg/m3]
[1], x1 = 0.0517 | – | 1642.59
[1], x1 = 0.1033 | – | 1591.9
[1], x1 = 0.1521 | – | 1545.03
[1], x1 = 0.2029 | – | 1497.33
[1], x1 = 0.2545 | – | 1449.85
[1], x1 = 0.3101 | – | 1399.96
[1], x1 = 0.3663 | – | 1350.58
[1], x1 = 0.4214 | – | 1303.32
[1], x1 = 0.478 | – | 1255.87
[1], x1 = 0.6053 | – | 1153.05
[1], x1 = 0.6591 | – | 1111.13
[1], x1 = 0.7254 | – | 1060.71
[1], x1 = 0.7885 | – | 1013.92
[1], x1 = 0.8577 | – | 963.85
[1], x1 = 0.9262 | – | 915.51
[2], x1 = 0.0642 | 0.00645 | –
[2], x1 = 0.1447 | 0.0108 | –
[2], x1 = 0.2305 | 0.012 | –
[2], x1 = 0.3193 | 0.00956 | –
[2], x1 = 0.3711 | 0.00621 | –
[2], x1 = 0.3957 | 0.0043 | –
[2], x1 = 0.4159 | 0.000956 | –
[2], x1 = 0.4621 | -0.00359 | –
[2], x1 = 0.4668 | -0.00478 | –
[2], x1 = 0.5278 | -0.00932 | –
[2], x1 = 0.6041 | -0.0115 | –
[2], x1 = 0.6965 | -0.0129 | –
[2], x1 = 0.806 | -0.0115 | –
[2], x1 = 0.9138 | -0.00693 | –
